From patent US6825176B2, “E2 displacement assay for identifying inhibitors of HPV” (Boehringer Ingelheim (Canada) Ltd., priority 2002, dated 2004) come the findings set out here.

Each structure is given as a SMILES string.

The IC50 is the point on the concentration scale where inhibition reaches its midpoint. As a reminder, the Kd is the constant that tells how readily two partners part at equilibrium. Low readings indicate tighter binding, high ones weaker binding.

Experiment [1] concerns the target T1, transactivation domain of HPV11 E2 (TAD) (Human papillomavirus 11, UniProt P04015).
T1 construct: HPV11 E2 amino acids 2* -215 (*Met-1 removed); made in house; host or cells: E. coli BL21 (DE3)pLysS, plasmid pET23a(+)
Kind of experiment: HPV E2 transactivation domain (TAD) ligand displacement assay. The experiment is classed as binding. The source says:
This assay measures the binding of a radiolabeled compound (“probe”) to the transactivation domain of HPV11 E2 (TAD). The protein binds to Ni-coated Flash plates, and the measured signal being proportional to the concentration of bound probe. If a test compound binds to the TAD, it will displace the probe, which will result in a lower signal.
(§1) HPV-11 TAD: HPV11 E2 amino acids 2* -215 (*Met-1 removed) with an amino terminal epitope tag derived from the T7 phage gene 10 protein and a C-terminal His tag (SEQ ID NO.2). Total MW is 27 kDa.
25 mM MOPS, pH 7.0; 100 mM NaCl; 1 mM DTT; 0.0025% Tween-20. The pH was verified before adding DTT and Tween, and was adjusted where necessary. […]
TAD was diluted to 300 nM in assay buffer and used 20 μL […] dilution per well. […] This has a measurable effect on signal: background but little effect on z′ or measured inhibition (J.-H. Zhang, et al., 1999, J. Biomolecular Screening v4(2), 67-73). […]
The assay was performed in 96-well FlashPlates (PE/NEN). […] Plates were then sealed with TopCount-compatible sealing film, shaken briefly, incubated at room temperature, then counted on the TopCount after 3 hrs and again at 20 hrs.
The assay was run as described in Example 6. For each inhibitor concentration, the percent inhibition observed was calculated and the resulting inhibition curve was fit to a logistic using SAS. […]

Experiment [2] concerns the target T1, transactivation domain of HPV11 E2 (TAD). The experiment can be described thus: isothermal titration calorimetry of probe binding to the TAD. The following applies: isothermal titration calorimetry with its non-tritiated homolog. Here is the method:
Radiolabeled probe: The tritium labeled probe 1j binds to the TAD with a Kd of 40 nM, as determined by isothermal titration calorimetry with its non-tritiated homolog.
as §1
On the technique in general: Isothermal titration calorimetry measures the heat released or taken up as one component is titrated into another.

T1 sequence (P04015 2-215): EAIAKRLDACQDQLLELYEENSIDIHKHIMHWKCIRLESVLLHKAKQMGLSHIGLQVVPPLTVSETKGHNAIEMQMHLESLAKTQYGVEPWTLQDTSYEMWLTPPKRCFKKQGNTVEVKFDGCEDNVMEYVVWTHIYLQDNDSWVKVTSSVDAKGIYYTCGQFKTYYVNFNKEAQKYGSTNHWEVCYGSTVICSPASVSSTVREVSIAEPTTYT

As to `O=C(Nc1ccc2c(c1)OCO2)C1C(c2ccc(Cl)cc2)OC2(C(=O)c3ccccc3C2=O)C1C(=O)O` (racemic) [Compound 3h], the IC50 was 4 ± 0.6 µM in experiment [1] (counting at 20 hours, 50 nM TAD, 25 nM probe, FIG. 5) and about 10 µM in experiment [1] (standard inhibitor, racemic mixture). The compound `CC(=O)NCc1ccc(N2C(=O)[C@H]3[C@@H](C2=O)[C@@]2(O[C@H]3c3ccc(Br)c(Br)c3)C(=O)c3cc(C)sc3C2=O)cc1` [Compound 1j] had a Kd in experiment [2] of 0.04 µM.
